Results as given in ChEMBL document CHEMBL1143144, “Antitumor studies. Part 4: Design, synthesis, antitumor activity, and molecular docking study of novel 2-substituted 2-deoxoflavin-5-oxides, 2-deoxoalloxazine-5-oxides, and their 5-deaza analogs” (Bioorg Med Chem, 2008).
Values after ≈ are worked out from the molar mass of the structure shown.

Tests used:
CCRF-HSB-2 = assay: Antitumor activity against human CCRF-HSB2 cells by MTT assay; assay type: functional, cell-based
KB = assay: Antitumor activity against human KB cells by MTT assay; assay type: functional, cell-based

SMILES	IC50 (CCRF-HSB-2)	IC50 (KB)
Cc1ccc2c(c1)[n+]([O-])c1c(=O)nc(NC3CCCCC3)nc-1n2C	7.1 µg/mL (≈ 20.9 µM)	33.7 µg/mL (≈ 99.3 µM)
COc1ccc2c(c1)[n+]([O-])c1c(=O)[nH]c(=O)nc-1n2C	5.1 µg/mL (≈ 18.6 µM)	6.2 µg/mL (≈ 22.6 µM)
CCn1c2nc(NCC(C)C)nc(=O)c-2[n+]([O-])c2ccccc21	6 µg/mL (≈ 19.1 µM)	8.1 µg/mL (≈ 25.8 µM)
CN(C)c1nc2nc3ccccc3nc2c(=O)[nH]1	51.2 µg/mL (≈ 212 µM)	63.1 µg/mL (≈ 262 µM)
CNc1nc2n(C)c3ccccc3[n+]([O-])c-2c(=O)n1	1.74 µg/mL (≈ 6.76 µM)	6.93 µg/mL (≈ 26.9 µM)
CSc1nc2nc3c(C)cc(C)cc3[n+]([O-])c2c(=O)[nH]1	6.29 µg/mL (≈ 21.8 µM)	11.8 µg/mL (≈ 40.9 µM)
Cn1c2nc(=O)[nH]c(=O)c-2nc2ccccc21	1.8 µg/mL (≈ 7.89 µM)	2.1 µg/mL (≈ 9.2 µM)
CCn1c2nc(SC)nc(=O)c-2[n+]([O-])c2ccccc21	3.72 µg/mL (≈ 12.9 µM)	8.19 µg/mL (≈ 28.4 µM)
CSc1nc2n(C)c3cc(C)c(C)cc3[n+]([O-])c-2c(=O)n1	14.3 µg/mL (≈ 47.3 µM)	30 µg/mL (≈ 99.2 µM)
COc1ccc2c(c1)[n+]([O-])c1c(=O)nc(SC)nc-1n2C	9.84 µg/mL (≈ 32.3 µM)	11 µg/mL (≈ 36.1 µM)
CSc1nc2nc3ccccc3[n+]([O-])c2c(=O)n1C	8.63 µg/mL (≈ 31.5 µM)	9.31 µg/mL (≈ 33.9 µM)
COc1ccc2c(c1)n(C)c1nc(SC)nc(=O)c-1[n+]2[O-]	10 µg/mL (≈ 32.9 µM)	12.5 µg/mL (≈ 41.1 µM)
CSc1nc2nc3c(C)cc(C)cc3[n+]([O-])c2c(=O)n1C	8.96 µg/mL (≈ 29.6 µM)	14.2 µg/mL (≈ 47 µM)
CNc1nc2n(C)c3ccccc3cc-2c(=O)n1	2.7 µg/mL (≈ 11.2 µM)	14.5 µg/mL (≈ 60.3 µM)
CCOC(=O)Cn1c(SC)nc2nc3ccccc3[n+]([O-])c2c1=O	34.2 µg/mL (≈ 98.7 µM)	54.8 µg/mL (≈ 158 µM)
COc1ccc2c(c1)[n+]([O-])c1c(=O)nc(N3CCCCC3)nc-1n2C	6.18 µg/mL (≈ 18.1 µM)	27.6 µg/mL (≈ 80.9 µM)

The next lines start with the values.

IC50 (CCRF-HSB-2)	IC50 (KB)	SMILES
1.56 µg/mL (≈ 5.69 µM)	1.44 µg/mL (≈ 5.25 µM)	CSc1nc2n(C)c3ccccc3[n+]([O-])c-2c(=O)n1
1.46 µg/mL (≈ 4.85 µM)	1.7 µg/mL (≈ 5.64 µM)	Cc1ccc2c(c1)[n+]([O-])c1c(=O)nc(NCCO)nc-1n2C
4.11 µg/mL (≈ 14.2 µM)	5.35 µg/mL (≈ 18.4 µM)	COc1ccc2nc3nc(SC)[nH]c(=O)c3[n+]([O-])c2c1
5.86 µg/mL (≈ 21.4 µM)	5.8 µg/mL (≈ 21.1 µM)	CSc1nc2nc3ccc(C)cc3[n+]([O-])c2c(=O)[nH]1
1.46 µg/mL (≈ 5.06 µM)	0.61 µg/mL (≈ 2.12 µM)	CSc1nc2n(C)c3c(C)cccc3[n+]([O-])c-2c(=O)n1
34.7 µg/mL (≈ 115 µM)	46.3 µg/mL (≈ 153 µM)	CCn1c2nc(SC)nc(=O)c-2[n+]([O-])c2cc(C)ccc21
17.1 µg/mL (≈ 59.3 µM)	27.7 µg/mL (≈ 96.1 µM)	CSc1nc2n(C)c3ccc(C)cc3[n+]([O-])c-2c(=O)n1
0.047 µg/mL (≈ 0.193 µM)	0.23 µg/mL (≈ 0.946 µM)	Nc1ccn([C@@H]2O[C@H](CO)[C@@H](O)[C@@H]2O)c(=O)n1 [CYTARABINE]
5.9 µg/mL (≈ 18.6 µM)	10 µg/mL (≈ 31.6 µM)	CCn1c(SC)nc2nc3c(C)cc(C)cc3[n+]([O-])c2c1=O
6.77 µg/mL (≈ 26 µM)	6.76 µg/mL (≈ 26 µM)	CSc1nc2nc3ccccc3[n+]([O-])c2c(=O)[nH]1
6.66 µg/mL (≈ 21.6 µM)	10.8 µg/mL (≈ 35 µM)	CSc1nc2n(C)c3ccc(Cl)cc3[n+]([O-])c-2c(=O)n1
7.74 µg/mL (≈ 26.8 µM)	13.4 µg/mL (≈ 46.5 µM)	CSc1nc2nc3ccc(C)cc3[n+]([O-])c2c(=O)n1C
1.57 µg/mL (≈ 6.48 µM)	1.89 µg/mL (≈ 7.8 µM)	CCn1c2nc(=O)[nH]c(=O)c-2nc2ccccc21
23.2 µg/mL (≈ 95.4 µM)	44.1 µg/mL (≈ 181 µM)	CSc1nc2nc3ccccc3cc2c(=O)[nH]1
41.4 µg/mL (≈ 132 µM)	71.7 µg/mL (≈ 229 µM)	COc1ccc2nc3nc(N4CCOCC4)[nH]c(=O)c3nc2c1
